The record followed here is ChEMBL document CHEMBL5579855 (J Med Chem, 2024).

Series [1] relates to PANC-1. In words: cells. The conditions noted are these: Homo sapiens, PANC-1, 96 h.
Description: Antiproliferative activity against human PANC-1 cells assessed as inhibition of cell growth incubated for 96 hrs by CCK-8 cell viability assay
The next series relates to MDA-MB-231. In words: cells. The conditions noted are these: Homo sapiens, MDA-MB-231, 96 h.
Series [2] has as its system PANC-1. In words: Antitumor activity against human PANC-1 cells xenografted in male BALB/c/Nu/Nu assessed as reduction in tumor growth inhibition at 4 mg/kg, ip and measured every 2 days for 21 days. The conditions noted are these: Mus musculus, PANC-1, 48 h, read-out: TGI.
Series [3] has as its target T1, Histone-lysine N-methyltransferase EHMT2 (Homo sapiens, UniProt Q96KQ7).
T1 sequence (Q96KQ7 whole entry): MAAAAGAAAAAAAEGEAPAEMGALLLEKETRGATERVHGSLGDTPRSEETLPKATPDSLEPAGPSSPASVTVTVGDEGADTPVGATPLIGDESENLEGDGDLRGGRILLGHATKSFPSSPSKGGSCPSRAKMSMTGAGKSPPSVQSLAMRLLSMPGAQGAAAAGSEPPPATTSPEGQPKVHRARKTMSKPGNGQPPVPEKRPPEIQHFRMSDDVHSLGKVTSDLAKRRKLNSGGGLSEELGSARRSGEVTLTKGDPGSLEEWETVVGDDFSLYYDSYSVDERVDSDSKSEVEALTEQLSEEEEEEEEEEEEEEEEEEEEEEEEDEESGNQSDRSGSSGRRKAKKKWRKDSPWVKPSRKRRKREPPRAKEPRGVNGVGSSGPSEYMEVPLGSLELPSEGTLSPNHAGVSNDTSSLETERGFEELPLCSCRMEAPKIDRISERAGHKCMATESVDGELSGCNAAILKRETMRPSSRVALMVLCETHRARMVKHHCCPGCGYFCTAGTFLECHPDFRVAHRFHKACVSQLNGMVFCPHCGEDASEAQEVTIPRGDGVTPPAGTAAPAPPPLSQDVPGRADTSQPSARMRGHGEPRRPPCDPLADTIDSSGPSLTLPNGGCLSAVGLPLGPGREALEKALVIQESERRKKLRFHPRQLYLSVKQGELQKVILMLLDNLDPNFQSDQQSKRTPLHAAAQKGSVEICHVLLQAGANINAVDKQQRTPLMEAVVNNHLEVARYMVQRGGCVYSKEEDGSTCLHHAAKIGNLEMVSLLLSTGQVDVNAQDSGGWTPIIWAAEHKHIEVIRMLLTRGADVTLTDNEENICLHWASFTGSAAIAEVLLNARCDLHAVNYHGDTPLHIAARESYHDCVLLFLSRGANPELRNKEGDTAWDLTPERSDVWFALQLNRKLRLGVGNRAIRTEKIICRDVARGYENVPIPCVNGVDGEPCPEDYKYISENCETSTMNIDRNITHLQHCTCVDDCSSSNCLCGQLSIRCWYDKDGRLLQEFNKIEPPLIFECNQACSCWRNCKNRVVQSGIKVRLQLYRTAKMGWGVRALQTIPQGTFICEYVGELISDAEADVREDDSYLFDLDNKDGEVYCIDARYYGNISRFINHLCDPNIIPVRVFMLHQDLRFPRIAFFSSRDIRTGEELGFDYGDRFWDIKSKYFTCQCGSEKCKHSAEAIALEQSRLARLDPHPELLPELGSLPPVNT
In words: Inhibition of G9a (unknown origin) by AlphaLISA assay.

Series [4] has as its target T2, Histone-lysine N-methyltransferase NSD2 (Homo sapiens, UniProt O96028).
T2 sequence (O96028 whole entry): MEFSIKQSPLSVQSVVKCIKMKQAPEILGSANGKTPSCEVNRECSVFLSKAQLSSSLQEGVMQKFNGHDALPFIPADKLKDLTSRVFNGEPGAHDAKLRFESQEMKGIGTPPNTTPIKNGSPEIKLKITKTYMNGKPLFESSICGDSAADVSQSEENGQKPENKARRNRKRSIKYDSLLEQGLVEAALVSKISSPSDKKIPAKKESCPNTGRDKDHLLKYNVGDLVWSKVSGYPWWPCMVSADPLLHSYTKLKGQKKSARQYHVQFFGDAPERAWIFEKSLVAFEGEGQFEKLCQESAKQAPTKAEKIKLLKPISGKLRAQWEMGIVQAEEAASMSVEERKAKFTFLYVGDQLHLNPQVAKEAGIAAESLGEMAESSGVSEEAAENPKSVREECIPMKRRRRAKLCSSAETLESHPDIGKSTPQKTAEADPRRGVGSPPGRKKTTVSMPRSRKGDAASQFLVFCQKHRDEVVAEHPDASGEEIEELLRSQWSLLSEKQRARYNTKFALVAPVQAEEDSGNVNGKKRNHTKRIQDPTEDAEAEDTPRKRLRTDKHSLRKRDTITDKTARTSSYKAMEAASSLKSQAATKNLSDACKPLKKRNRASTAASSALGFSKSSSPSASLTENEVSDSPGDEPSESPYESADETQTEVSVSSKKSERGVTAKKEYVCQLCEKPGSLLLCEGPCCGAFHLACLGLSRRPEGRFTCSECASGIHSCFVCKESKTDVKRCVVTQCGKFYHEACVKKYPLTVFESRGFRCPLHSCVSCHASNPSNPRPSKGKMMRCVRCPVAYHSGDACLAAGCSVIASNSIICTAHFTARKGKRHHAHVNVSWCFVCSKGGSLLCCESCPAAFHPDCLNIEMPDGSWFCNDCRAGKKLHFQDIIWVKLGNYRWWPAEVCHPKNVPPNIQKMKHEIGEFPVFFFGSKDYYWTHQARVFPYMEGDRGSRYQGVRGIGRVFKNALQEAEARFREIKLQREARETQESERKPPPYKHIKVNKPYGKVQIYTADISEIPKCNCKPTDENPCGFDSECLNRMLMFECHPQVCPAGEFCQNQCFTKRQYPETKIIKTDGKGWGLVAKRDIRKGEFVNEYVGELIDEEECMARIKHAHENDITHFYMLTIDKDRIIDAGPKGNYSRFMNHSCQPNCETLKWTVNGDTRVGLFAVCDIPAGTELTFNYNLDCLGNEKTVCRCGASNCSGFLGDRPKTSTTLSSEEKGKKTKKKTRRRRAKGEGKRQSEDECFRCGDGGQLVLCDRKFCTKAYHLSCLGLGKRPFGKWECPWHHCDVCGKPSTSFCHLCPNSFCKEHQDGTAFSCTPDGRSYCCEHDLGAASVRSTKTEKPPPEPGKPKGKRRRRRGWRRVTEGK
In words: Inhibition of NSD2 (unknown origin) by AlphaLISA assay.

Series [5] addresses Histone-lysine N-methyltransferase 2A (Homo sapiens, UniProt Q03164). In words: Inhibition of MLL1 (unknown origin).
In series [6] the target is T3, Histone-arginine methyltransferase CARM1 (Homo sapiens, UniProt Q86X55).
T3 sequence (Q86X55 whole entry): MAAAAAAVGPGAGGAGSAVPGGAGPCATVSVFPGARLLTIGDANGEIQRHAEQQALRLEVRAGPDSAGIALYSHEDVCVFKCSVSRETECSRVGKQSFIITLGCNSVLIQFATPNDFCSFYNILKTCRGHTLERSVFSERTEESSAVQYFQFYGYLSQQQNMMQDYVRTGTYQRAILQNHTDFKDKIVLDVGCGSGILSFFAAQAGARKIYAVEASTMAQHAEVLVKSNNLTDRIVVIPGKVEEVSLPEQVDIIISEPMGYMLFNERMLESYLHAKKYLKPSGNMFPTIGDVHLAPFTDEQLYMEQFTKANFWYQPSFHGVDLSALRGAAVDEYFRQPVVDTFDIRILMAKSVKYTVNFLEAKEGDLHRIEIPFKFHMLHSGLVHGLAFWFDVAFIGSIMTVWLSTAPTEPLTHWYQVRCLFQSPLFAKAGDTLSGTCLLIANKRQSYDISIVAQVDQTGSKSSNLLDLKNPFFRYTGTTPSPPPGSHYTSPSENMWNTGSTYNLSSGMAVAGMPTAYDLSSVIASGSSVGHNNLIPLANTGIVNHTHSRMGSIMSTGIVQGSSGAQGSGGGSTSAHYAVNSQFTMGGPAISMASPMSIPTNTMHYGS
In words: Inhibition of PRMT4 (unknown origin).

Series [7] has as its target Histone-lysine N-methyltransferase 2B (Homo sapiens, UniProt Q9UMN6). In words: Inhibition of MLL4 (unknown origin).
The target in series [8] is T4, Histone-lysine N-methyltransferase EHMT1 (Homo sapiens, UniProt Q9H9B1).
T4 sequence (Q9H9B1 whole entry): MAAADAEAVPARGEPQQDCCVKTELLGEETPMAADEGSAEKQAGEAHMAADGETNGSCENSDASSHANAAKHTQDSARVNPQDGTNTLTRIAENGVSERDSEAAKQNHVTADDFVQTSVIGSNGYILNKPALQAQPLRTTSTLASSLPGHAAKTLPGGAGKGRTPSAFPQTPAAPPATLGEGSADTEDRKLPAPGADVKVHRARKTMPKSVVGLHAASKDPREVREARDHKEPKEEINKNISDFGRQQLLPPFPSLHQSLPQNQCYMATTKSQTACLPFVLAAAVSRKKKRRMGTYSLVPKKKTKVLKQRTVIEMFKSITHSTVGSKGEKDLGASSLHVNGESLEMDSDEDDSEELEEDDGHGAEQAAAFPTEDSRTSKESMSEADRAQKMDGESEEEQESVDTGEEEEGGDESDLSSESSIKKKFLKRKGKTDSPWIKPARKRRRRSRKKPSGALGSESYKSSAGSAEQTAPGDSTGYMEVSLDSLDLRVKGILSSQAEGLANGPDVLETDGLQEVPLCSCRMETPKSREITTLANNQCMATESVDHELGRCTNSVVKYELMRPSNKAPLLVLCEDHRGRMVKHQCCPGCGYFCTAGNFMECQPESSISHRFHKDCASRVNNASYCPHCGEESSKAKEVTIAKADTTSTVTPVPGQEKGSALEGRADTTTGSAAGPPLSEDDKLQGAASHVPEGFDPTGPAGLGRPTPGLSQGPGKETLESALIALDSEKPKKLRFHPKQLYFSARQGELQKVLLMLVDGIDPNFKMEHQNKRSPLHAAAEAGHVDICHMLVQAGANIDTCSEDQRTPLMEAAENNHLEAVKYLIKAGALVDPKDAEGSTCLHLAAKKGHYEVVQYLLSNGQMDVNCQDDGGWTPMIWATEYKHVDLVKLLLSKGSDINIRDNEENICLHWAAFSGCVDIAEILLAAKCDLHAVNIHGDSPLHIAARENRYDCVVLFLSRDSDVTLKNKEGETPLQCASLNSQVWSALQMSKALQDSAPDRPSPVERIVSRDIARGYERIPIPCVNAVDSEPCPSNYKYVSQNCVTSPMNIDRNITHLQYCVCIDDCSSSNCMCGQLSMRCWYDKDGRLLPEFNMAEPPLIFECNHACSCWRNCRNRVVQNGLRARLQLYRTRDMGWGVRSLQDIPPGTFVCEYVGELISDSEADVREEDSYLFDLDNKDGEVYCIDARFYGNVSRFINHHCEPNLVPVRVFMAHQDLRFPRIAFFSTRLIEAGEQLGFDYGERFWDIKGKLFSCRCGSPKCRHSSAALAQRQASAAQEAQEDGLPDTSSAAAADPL
In words: Inhibition of GLP (unknown origin).

Series [9] addresses Histone-lysine N-methyltransferase EZH2 (Homo sapiens, UniProt Q15910). In words: Inhibition of EZH2 (unknown origin).
Series [10] in a line: Cmax in mouse at 4 mg/kg, ip. The series is classed as ADME, organism-based. Particulars: in vivo.
Series [11] addresses DNA (cytosine-5)-methyltransferase 1 (Homo sapiens, UniProt P26358). In words: Inhibition of DNMT1 (unknown origin).
The nature of series [12]: AUC (0 to last) in mouse at 4 mg/kg, ip. In kind it is ADME, organism-based. Particulars: in vivo.
The target of series [13] is Protein arginine N-methyltransferase 1 (Homo sapiens, UniProt Q99873). In words: Inhibition of PRMT1 (unknown origin).
Protein arginine N-methyltransferase 1, sequence (Q99873 whole entry): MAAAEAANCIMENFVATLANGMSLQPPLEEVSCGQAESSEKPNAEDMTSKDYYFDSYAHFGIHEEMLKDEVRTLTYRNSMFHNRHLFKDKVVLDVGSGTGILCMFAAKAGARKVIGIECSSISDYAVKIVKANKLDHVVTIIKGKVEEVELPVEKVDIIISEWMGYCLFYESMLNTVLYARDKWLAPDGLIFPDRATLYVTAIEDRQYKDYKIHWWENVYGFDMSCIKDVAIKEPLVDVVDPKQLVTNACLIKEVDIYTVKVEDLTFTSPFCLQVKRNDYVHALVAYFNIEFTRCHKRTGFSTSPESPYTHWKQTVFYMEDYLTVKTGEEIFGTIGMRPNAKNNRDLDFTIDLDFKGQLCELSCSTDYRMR
Series [14] is described as follows: Toxicity in male BALB/c/Nu/Nu mouse xenografted with human PANC-1 cells assessed as drug tolerance administered as ip dose and measured every 2 days for 21 days. The series is classed as organism-based. The conditions noted are these: in vivo, 504 h, time 21 day.
Series [15] can be described thus: Half life in mouse at 4 mg/kg, ip. In kind it is ADME, organism-based. The conditions noted are these: in vivo.
Series [16] is described as follows: Toxicity in male BALB/c/Nu/Nu mouse xenografted with human PANC-1 cells assessed as change in body weight administered as ip dose and measured every 2 days for 21 days. The series is classed as organism-based. Particulars: in vivo, 504 h, time 21 day.
Series [17] addresses Protein arginine N-methyltransferase 5 (Homo sapiens, UniProt O14744). In words: Inhibition of PRMT5 (unknown origin).
The nature of series [18]: MRT (0 to t) in mouse at 4 mg/kg, ip. In kind it is ADME, organism-based. Particulars: in vivo.
Series [19] can be described thus: AUC (0 to infinity) in mouse at 4 mg/kg, ip. The conditions noted are these: in vivo. The series is classed as ADME, organism-based.

Protein arginine N-methyltransferase 5, sequence (O14744 whole entry): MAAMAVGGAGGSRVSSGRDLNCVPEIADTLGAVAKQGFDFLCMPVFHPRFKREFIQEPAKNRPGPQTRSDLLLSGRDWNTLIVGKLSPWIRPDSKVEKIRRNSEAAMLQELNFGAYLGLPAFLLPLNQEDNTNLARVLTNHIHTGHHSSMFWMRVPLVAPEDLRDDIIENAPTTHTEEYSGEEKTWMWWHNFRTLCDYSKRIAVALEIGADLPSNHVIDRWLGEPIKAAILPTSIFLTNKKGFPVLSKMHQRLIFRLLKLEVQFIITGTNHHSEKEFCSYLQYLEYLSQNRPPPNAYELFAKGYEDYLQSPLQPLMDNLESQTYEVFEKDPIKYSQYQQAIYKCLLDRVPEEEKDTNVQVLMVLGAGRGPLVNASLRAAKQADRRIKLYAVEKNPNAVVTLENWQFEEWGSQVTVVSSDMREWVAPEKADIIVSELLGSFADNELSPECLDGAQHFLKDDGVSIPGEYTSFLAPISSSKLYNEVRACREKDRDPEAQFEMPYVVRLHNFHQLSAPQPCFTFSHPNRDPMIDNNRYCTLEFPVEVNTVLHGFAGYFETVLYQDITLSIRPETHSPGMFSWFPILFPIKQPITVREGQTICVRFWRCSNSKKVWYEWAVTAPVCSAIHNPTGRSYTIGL
Histone-lysine N-methyltransferase EZH2, sequence (Q15910 whole entry): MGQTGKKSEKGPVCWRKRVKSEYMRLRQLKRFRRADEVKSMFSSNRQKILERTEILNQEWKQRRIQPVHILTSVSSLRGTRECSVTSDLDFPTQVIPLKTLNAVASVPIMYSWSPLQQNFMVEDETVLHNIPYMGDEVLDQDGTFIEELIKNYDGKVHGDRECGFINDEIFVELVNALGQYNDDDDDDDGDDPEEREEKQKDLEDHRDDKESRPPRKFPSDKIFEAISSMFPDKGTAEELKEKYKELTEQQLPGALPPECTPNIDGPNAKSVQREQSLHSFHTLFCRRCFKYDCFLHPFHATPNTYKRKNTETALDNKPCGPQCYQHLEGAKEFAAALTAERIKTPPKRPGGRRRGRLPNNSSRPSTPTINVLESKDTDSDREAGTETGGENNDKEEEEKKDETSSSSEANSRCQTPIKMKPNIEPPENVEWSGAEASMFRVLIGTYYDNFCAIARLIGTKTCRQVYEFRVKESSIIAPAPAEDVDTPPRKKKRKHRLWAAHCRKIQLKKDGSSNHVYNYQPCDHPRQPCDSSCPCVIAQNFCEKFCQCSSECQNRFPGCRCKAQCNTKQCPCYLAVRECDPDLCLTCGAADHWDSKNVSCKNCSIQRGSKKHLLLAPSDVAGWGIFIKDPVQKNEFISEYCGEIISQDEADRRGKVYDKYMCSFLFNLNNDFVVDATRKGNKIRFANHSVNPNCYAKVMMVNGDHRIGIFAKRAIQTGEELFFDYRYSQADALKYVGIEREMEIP
Histone-lysine N-methyltransferase 2B, sequence (Q9UMN6 whole entry): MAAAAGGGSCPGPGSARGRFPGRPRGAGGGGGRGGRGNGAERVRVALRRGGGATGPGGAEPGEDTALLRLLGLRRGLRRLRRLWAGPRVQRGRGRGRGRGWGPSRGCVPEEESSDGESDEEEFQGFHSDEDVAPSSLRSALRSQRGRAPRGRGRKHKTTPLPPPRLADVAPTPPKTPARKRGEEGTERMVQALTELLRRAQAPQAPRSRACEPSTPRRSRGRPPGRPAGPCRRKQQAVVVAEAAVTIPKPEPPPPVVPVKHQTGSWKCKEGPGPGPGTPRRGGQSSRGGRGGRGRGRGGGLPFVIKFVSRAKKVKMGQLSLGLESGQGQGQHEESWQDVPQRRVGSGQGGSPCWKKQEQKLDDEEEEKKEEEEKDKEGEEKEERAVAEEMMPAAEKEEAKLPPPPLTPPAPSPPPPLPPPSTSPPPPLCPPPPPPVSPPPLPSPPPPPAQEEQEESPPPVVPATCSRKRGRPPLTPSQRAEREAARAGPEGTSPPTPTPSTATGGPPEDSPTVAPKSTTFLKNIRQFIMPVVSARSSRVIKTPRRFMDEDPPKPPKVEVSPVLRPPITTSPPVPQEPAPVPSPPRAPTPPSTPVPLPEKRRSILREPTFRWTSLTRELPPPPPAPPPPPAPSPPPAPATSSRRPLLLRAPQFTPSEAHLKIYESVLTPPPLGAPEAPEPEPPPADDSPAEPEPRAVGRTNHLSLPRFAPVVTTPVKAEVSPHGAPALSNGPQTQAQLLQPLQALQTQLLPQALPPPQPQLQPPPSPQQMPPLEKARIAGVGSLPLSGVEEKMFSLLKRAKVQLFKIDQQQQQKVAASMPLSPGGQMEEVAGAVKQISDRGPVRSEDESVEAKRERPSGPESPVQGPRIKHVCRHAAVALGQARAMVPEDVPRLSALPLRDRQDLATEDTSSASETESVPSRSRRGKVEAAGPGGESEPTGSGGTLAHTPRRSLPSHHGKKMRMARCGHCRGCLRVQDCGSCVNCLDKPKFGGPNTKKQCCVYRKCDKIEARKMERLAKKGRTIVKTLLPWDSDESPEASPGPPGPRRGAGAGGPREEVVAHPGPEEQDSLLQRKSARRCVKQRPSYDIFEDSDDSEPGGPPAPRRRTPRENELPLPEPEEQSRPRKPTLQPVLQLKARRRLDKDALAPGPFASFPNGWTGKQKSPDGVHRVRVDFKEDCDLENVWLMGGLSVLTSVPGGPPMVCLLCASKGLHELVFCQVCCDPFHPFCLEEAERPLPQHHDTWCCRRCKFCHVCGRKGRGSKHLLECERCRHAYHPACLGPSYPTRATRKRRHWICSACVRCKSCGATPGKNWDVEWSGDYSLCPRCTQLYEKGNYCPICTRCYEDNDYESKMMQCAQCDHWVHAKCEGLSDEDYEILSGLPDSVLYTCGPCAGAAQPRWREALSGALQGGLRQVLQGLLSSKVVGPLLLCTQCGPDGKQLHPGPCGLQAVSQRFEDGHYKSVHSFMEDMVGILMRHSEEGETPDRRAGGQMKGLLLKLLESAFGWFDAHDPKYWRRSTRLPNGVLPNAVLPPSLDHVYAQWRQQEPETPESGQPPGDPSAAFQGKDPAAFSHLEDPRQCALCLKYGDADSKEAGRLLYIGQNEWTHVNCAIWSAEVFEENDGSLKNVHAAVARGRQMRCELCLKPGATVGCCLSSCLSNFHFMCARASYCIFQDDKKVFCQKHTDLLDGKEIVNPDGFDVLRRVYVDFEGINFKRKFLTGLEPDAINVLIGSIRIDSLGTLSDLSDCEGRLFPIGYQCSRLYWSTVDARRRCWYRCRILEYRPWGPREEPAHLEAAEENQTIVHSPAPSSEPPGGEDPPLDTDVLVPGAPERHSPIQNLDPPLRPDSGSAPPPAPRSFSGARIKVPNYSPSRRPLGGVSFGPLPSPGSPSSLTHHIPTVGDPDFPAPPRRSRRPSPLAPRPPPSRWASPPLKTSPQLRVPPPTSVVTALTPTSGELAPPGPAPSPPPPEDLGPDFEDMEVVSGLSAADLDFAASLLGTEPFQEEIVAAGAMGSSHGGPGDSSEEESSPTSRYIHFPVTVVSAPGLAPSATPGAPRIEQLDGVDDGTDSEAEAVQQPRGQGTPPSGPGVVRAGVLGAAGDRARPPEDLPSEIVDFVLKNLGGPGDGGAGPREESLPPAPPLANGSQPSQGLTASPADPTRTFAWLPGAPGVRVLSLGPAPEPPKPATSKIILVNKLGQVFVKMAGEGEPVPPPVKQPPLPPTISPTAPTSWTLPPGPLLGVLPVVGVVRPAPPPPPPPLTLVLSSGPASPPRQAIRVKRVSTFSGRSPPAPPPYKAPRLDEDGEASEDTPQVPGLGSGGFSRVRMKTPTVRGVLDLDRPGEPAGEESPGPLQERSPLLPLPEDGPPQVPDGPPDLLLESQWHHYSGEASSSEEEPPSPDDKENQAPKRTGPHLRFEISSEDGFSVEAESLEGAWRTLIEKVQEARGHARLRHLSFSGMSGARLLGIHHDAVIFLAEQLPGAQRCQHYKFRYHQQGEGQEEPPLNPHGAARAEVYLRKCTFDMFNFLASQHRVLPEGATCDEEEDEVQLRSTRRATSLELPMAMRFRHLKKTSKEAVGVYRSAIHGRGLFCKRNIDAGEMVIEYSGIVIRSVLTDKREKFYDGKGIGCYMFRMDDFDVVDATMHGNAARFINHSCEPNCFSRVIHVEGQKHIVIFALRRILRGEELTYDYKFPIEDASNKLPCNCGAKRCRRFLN
Description for MDA-MB-231: Antiproliferative activity against human MDA-MB-231 cells assessed as inhibition of cell growth incubated for 96 hrs by CCK-8 cell viability assay

For the molecule `COc1cc2c(NC3CCN(C(C)C)CC3)nc(N3CCC(F)(F)CC3)nc2cc1OCCCN1CCCC1`, the figures for the IC50 with PANC-1 [1] and with MDA-MB-231 were 5.74 µM and 3.31 µM, respectively. The inhibition in vivo at 4 mg/kg in the series on PANC-1 [2] came out at 7.34%.
`C=CC(=O)N(C)c1nc(NC2CCN(C(C)C)CC2)c2cc(OC)c(OCCCN3CCCC3)cc2n1`: it took 0.0085 µM to reach half-maximal inhibition in [3] (IC50). This counts as single-digit nanomolar.
Still for that read-out and setting: as for `CNc1nc2cc(OCCCN3CCCC3)c(OC)cc2n1C(C)C`, the figure is under 0.1 µM.
Take `COc1cc2nc(C#N)nc(NC3CCN(Cc4ccccc4)CC3)c2cc1OC`: the values for the IC50 in series [4] and in series [3] were 2.65 µM and over 10 µM, respectively.
Regarding `COc1cc2c(NC3CCN(C(C)C)CC3)nc(C#N)nc2cc1OCCCN1CCCC1`, the IC50 in series [5] is over 10 µM; in [6], over 10 µM; in [7] it was over 10 µM; in series [8], 0.41 µM; in series [9], over 10 µM; in series [11], over 10 µM. Further, the results for the IC50 in series [13] and in series [17] were 6.44 µM and over 10 µM, respectively. The molecule also came in with a Cmax in [10] of 732 ng/mL. Besides, the AUClast in [12] came out at 1987 ng·h/mL. Further, the Activity result in series [14] and in series [16] was “Non-Toxic” each time. This molecule also had a half-life in [15] of 16 h. The same molecule returned an MRT last in series [18] of 20.3 h. Further, in [19], the AUC was 2960 ng·h/mL.
Consider `COc1cc(F)c(-c2cc(Cn3cnc4c(N)ncnc43)c(N3CCC[C@](N)([C@H](O)CF)C3)cn2)cc1F`, for which, in [4], the IC50 is under 0.1 µM.
